Reference: patent publication US10945771B2, “Azabicyclo[4.1.0]heptane allosteric modulators of the M4 muscarinic acetylcholine receptor” (Merck Sharp & Dohme Corp., priority 2017, dated 2021)

molecular target: T1, human M4 muscarinic acetylcholine receptor (Homo sapiens, UniProt P08173); experiment: human FLIPR-based M4 PAM assay (Ca2+ dye fluorescence, CHO-K1 cells with human M4 receptor and Gαqi5); assay type: cell-based; conditions: inflection point (IP) of dose response curve, FLIPR Tetra, acetylcholine at 20% of maximum response
T1 construct: expressed in transfected cells; host or cells: CHO-K1
T1 sequence (P08173 1-479): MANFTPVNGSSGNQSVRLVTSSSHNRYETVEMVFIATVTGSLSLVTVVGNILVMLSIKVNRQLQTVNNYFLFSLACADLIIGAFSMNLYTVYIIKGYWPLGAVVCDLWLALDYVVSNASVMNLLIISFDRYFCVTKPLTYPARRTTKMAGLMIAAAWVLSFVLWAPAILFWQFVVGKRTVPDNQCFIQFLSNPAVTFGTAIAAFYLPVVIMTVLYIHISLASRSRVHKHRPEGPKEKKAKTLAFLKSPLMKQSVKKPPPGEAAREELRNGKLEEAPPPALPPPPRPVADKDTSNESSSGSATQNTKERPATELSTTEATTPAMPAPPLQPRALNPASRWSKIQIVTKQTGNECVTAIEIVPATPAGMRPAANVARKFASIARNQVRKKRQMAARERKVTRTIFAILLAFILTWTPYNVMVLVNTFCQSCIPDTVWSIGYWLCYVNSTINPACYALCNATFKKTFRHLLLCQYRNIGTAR
Description: In a typical experiment the M4 muscarinic acetylcholine receptor modulating activity of the compounds of the present invention was determined in accordance with the following experimental method. CHO-K1 cells stably transfected with human M4 receptor and chimeric G-protein Gαqi5 (Coward P, et al., Analytical Biochemistry, 270:242-248 (1999)) are thawed from liquid N2 storage, resuspended in growth medium, plated in black, clear bottom 384 well plates, and incubated 16-20 hours at 37° C., 5% CO2. On the day of assay, growth medium is removed, the cells are washed 2 times with wash buffer, and cells are incubated in dye loading buffer at 37° C., 5% CO2 for ˜1 hour. Following dye loading the cell plates are placed in a FLIPR Tetra instrument and while monitoring dye fluorescence (excitation […]), 10 uL of test substance at increasing concentrations is added, and fluorescence values are recorded for 4 min. Next, 10 uL of acetylcholine is added (final concentration calculated so as to achieve 20% of the maximum acetycholine response), and the fluorescence reading is continued for 3.5 min. In some cases, a third addition of acetylcholine (final concentration calculated to achieve 70% of the maximal acetylcholine response) is performed. The resulting dose response curves are fit to a 4 parameter logistic equation and the final result is determined as the inflection point (IP) of the curve
CHO-K1 cells stably transfected with human M4 receptor and chimeric G-protein Gαqi5 are thawed from liquid N2 storage, resuspended in growth medium, plated in black, clear bottom 384 well plates, and incubated 16-20 hours at 37° C., 5% CO2.
On the day of assay, growth medium is removed, the cells are washed 2 times with wash buffer, and cells are incubated in dye loading buffer at 37° C., 5% CO2 for ˜1 h. Following dye loading the cell plates are placed in a FLIPR Tetra instrument and while monitoring dye fluorescence ([…]), 10 uL of test substance at increasing concentrations is added, and fluorescence values are recorded for 4 min. Next, 10 uL of acetylcholine is added (final concentration calculated so as to achieve 20% of the maximum acetycholine response), and the fluorescence reading is continued for 3.5 min. In some cases, a third addition of acetylcholine (final concentration calculated to achieve 70% of the maximal acetylcholine response) is performed.

Q: `CCc1cc2c(nc1N1CCC(OCC3(C)CC3)C3CC31)C(CO)N(C)C2=O` (single isomer, unassigned) [Example 10, 3-ethyl-7-(hydroxymethyl)-6-methyl-2-(5-((1-methylcyclopropyl)methoxy)-2-azabicyclo[4.1.0]heptan-2-yl)-6,7-dihydro-5H-pyrrolo[3,4-b]pyridin-5-one] was tested. Which EC50 did it give?
A: 47 nM

Q: With `Cc1c(N2CCC(Oc3ccc4c(c3)COC4)C3CC32)nc2c(c1C)C(=O)NC2` (centres unmarked) [Example 27, 2-(5-((1,3-dihydroisobenzofuran-5-yl)oxy)-2-azabicyclo[4.1.0]heptan-2-yl)-3,4-dimethyl-6,7-dihydro-5H-pyrrolo[3,4-b]pyridin-5-one] as the compound, how does the EC50 read?
A: 166 nM

Q: Which EC50 does the source give for `Cc1c(N2CCC(OCC3(C)CC3)C3CC32)nc2c(c1C)C(=O)NC2` (single isomer, unassigned) [Example 1, 3,4-dimethyl-2-(5-((1-methylcyclopropyl)methoxy)-2-azabicyclo[4.1.0]heptan-2-yl)-6,7-dihydro-5H-pyrrolo[3,4-b]pyridin-5-one] here?
A: 39 nM

Q: Which EC50 does the source give for `CCc1cc2c(nc1N1CCC(OCC3(C)CC3)C3CC31)C(CO)N(C)C2=O` (single isomer, unassigned) [Example 12, 3-ethyl-7-(hydroxymethyl)-6-methyl-2-(5-((1-methylcyclopropyl)methoxy)-2-azabicyclo[4.1.0]heptan-2-yl)-6,7-dihydro-5H-pyrrolo[3,4-b]pyridin-5-one] here?
A: 506 nM

Q: `Cc1c(N2CCC(OCC3(C)CC3)C3CC32)nc2c(c1C)C(=O)N1CCC(O)CC21` (single isomer, unassigned) [Example 24, 9-hydroxy-3,4-dimethyl-2-(5-((1-methylcyclopropyl)methoxy)-2-azabicyclo[4.1.0]heptan-2-yl)-8,9,10,10a-tetrahydropyrido[2,3-a]indolizin-5(7H)-one] was tested. Which EC50 did it give?
A: 2440 nM

Q: Which EC50 does the source give for `Cc1c(N2CCC(OCC3(C)CC3)C3CC32)nc2c(c1C)C(=O)N(C)C2CO` (single isomer, unassigned) [Example 8, 7-(hydroxymethyl)-3,4,6-trimethyl-2-(5-((1-methylcyclopropyl)methoxy)-2-azabicyclo[4.1.0]heptan-2-yl)-6,7-dihydro-5H-pyrrolo[3,4-b]pyridin-5-one] here?
A: 3000 nM

Q: How did the EC50 turn out when `Cc1c(N2CCC(OCC3(C)CC3)C3CC32)nc2c(c1C)C(=O)N1CCC(O)CC21` (single isomer, unassigned) [Example 21, 9-hydroxy-3,4-dimethyl-2-(5-((1-methylcyclopropyl)methoxy)-2-azabicyclo[4.1.0]heptan-2-yl)-8,9,10,10a-tetrahydropyrido[2,3-a]indolizin-5(7H)-one] was run?
A: 157 nM

Q: Which EC50 does the source give for `Cc1cc2c(nc1N1CCC(Oc3ccc4c(c3)COC4)C3CC31)CNC2=O` (centres unmarked) [Example 30, 2-(5-((1,3-dihydroisobenzofuran-5-yl)oxy)-2-azabicyclo[4.1.0]heptan-2-yl)-3-methyl-6,7-dihydro-5H-pyrrolo[3,4-b]pyridin-5-one] here?
A: 727 nM

Q: Which EC50 does the source give for `Cc1c(N2CCC(OCC3(C)CC3)C3CC32)nc2c(c1C)C(=O)N(CCS(C)(=O)=O)C2` (single isomer, unassigned) [Example 17, 3,4-dimethyl-2-(5-((1-methylcyclopropyl)methoxy)-2-azabicyclo[4.1.0]heptan-2-yl)-6-(2-(methylsulfonyl)ethyl)-6,7-dihydro-5H-pyrrolo[3,4-b]pyridin-5-one] here?
A: 103 nM

Q: For `Cc1c(N2CCC(OCC3(C)CC3)C3CC32)nc2c(c1C)C(=O)N1CCC(O)CC21` (single isomer, unassigned) [Example 23, 9-hydroxy-3,4-dimethyl-2-(5-((1-methylcyclopropyl)methoxy)-2-azabicyclo[4.1.0]heptan-2-yl)-8,9,10,10a-tetrahydropyrido[2,3-a]indolizin-5(7H)-one], which EC50 is on record?
A: 2350 nM

Q: With `Cc1c(N2CCC(OCC3(C)CC3)C3CC32)nc2c(c1C)C(=O)N(CCS(C)(=O)=O)C2` (single isomer, unassigned) [Example 18] as the compound, how does the EC50 read?
A: 20200 nM

Q: Which EC50 does the source give for `Cc1c(N2CCC(OCC3(C)CC3)C3CC32)nc2c(c1C)C(=O)N1CCC(C)(O)CC21` (centres unmarked) [Example 25, 9-hydroxy-3,4,9-trimethyl-2-(5-((1-methylcyclopropyl)methoxy)-2-azabicyclo[4.1.0]heptan-2-yl)-8,9,10,10a-tetrahydropyrido[2,3-a]indolizin-5(7H)-one] here?
A: 195 nM

Q: Which EC50 does the source give for `Cc1c(N2CCC(OCC3(C)CC3)C3CC32)nc2c(c1C)C(=O)N(C)C2CO` (single isomer, unassigned) [Example 5, 7-(hydroxymethyl)-3,4,6-trimethyl-2-(5-((1-methylcyclopropyl)methoxy)-2-azabicyclo[4.1.0]heptan-2-yl)-6,7-dihydro-5H-pyrrolo[3,4-b]pyridin-5-one] here?
A: 117 nM

Q: Which EC50 does the source give for `Cc1cc2c(nc1N1CCC(Oc3ccc4c(c3)COC4)C3CC31)CNC2=O` (centres unmarked) [Example 29, 2-(5-((1,3-dihydroisobenzofuran-5-yl)oxy)-2-azabicyclo[4.1.0]heptan-2-yl)-3-methyl-6,7-dihydro-5H-pyrrolo[3,4-b]pyridin-5-one] here?
A: 43 nM

Q: Which EC50 does the source give for `Cc1c(N2CCC(Oc3ccc4c(c3)COCC4)C3CC32)nc2c(c1C)C(=O)NC2` (centres unmarked) [Example 35, 2-(5-(isochroman-7-yloxy)-2-azabicyclo[4.1.0]heptan-2-yl)-3,4-dimethyl-6,7-dihydro-5H-pyrrolo[3,4-b]pyridin-5-one] here?
A: 281 nM

Q: `Cc1c(N2CCC(OCC3(C)CC3)C3CC32)nc2c(c1C)C(=O)N(CCC#N)C2` (single isomer, unassigned) [Example 16, 3-(3,4-dimethyl-2-(5-((1-methylcyclopropyl)methoxy)-2-azabicyclo[4.1.0]heptan-2-yl)-5-oxo-5,7-dihydro-6H-pyrrolo[3,4-b]pyridin-6-yl)propanenitrile] was tested. Which EC50 did it give?
A: 1530 nM

Q: `Cc1c(N2CCC(OCC3(C)CC3)C3CC32)nc2c(c1C)C(=O)N(CCC#N)C2` (single isomer, unassigned) [Example 15, 3-(3,4-dimethyl-2-(5-((1-methylcyclopropyl)methoxy)-2-azabicyclo[4.1.0]heptan-2-yl)-5-oxo-5,7-dihydro-6H-pyrrolo[3,4-b]pyridin-6-yl)propanenitrile] was tested. Which EC50 did it give?
A: 50 nM

Q: For `Cc1cc2c(nc1N1CCC(Oc3ccc4c(c3)COC4)C3CC31)CNC2=O` (centres unmarked) [Example 28, 2-(5-((1,3-dihydroisobenzofuran-5-yl)oxy)-2-azabicyclo[4.1.0]heptan-2-yl)-3-methyl-6,7-dihydro-5H-pyrrolo[3,4-b]pyridin-5-one], which EC50 is on record?
A: 76 nM

Q: For `Cc1c(N2CCC(OCC3(C)CC3)C3CC32)nc2c(c1C)C(=O)N(C)C2CO` (single isomer, unassigned) [Example 6, 7-(hydroxymethyl)-3,4,6-trimethyl-2-(5-((1-methylcyclopropyl)methoxy)-2-azabicyclo[4.1.0]heptan-2-yl)-6,7-dihydro-5H-pyrrolo[3,4-b]pyridin-5-one], which EC50 is on record?
A: 711 nM

Q: With `CCc1cc2c(nc1N1CCC(OCC3(C)CC3)C3CC31)C(CO)N(C)C2=O` (single isomer, unassigned) [Example 9, 3-ethyl-7-(hydroxymethyl)-6-methyl-2-(5-((1-methylcyclopropyl)methoxy)-2-azabicyclo[4.1.0]heptan-2-yl)-6,7-dihydro-5H-pyrrolo[3,4-b]pyridin-5-one] as the compound, how does the EC50 read?
A: 8090 nM
